In PMC3206016, “Putting into Practice Domain-Linear Motif Interaction Predictions for Exploration of Protein Networks” (PLoS ONE, 2011) one finds Kd data, which are given here for 13 compounds.

Read-outs that look alike come from different tables or passages of the source. Ends that are not written are not given here. Peptide text beside a SMILES is read from it. * marks the point of attachment. Biotin = O=C1N[C@H]2[C@H](CS[C@H]2CCCCC(=O)*)N1

Holding throughout (assay): SPR binding of MBP-PDZ analyte to immobilised biotinylated peptides
(In general: Surface plasmon resonance follows binding to a sensor surface in real time, without labels.)

The target of one experiment is T1, MAGI1-3/6 PDZ domain (Mus musculus, UniProt Q6RHR9).
T1 construct: The cDNA encoding residues 448–572 and 613–752 of mouse MAGI-1 (UniProt acc.: Q6RHR9-1); made in house; host or cells: E. coli BL21 DE3
T1 sequence (Q6RHR9 613-752): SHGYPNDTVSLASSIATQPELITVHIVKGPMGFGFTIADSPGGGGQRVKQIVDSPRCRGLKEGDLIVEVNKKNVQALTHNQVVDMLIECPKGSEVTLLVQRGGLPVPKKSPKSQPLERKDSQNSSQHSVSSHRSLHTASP
The following applies: SPR Biacore 2000, 25 C, steady state, 1:1 binding isotherm, MBP-PDZ 0-30 µM; to be considered with caution; read-out: tentative KD. As to the method: (§1) We opted for the surface plasmon resonance (SPR) method to measure these 190 (19 proteins×2 peptide versions×5 PDZ constructs) interactions. In SPR various concentrations of “analytes” (here, PDZ domains fused to the Maltose Binding Protein (MBP)) flow over surfaces presenting attached “ligands” (here, biotinylated peptides). The amount of analyte interacting with the ligand is measured and quantified in response units (RU). The intensity of this signal is proportional to the binding strength of the assayed interaction (Figure 5A). K [drawing 13] were obtained using a 1∶1 interaction model. However, these calculated K [drawing 14] were rather inaccurate especially for weak interactions. Therefore, we preferred to rank the binding strengths of the 190 interactions using normalised RU signals at equilibrium ( [drawing 15] ) rather than K [drawing 16] (see Methods for details). These normalised [drawing 17] values were plotted in form of a heat map (Figure 5B).
(§2) The cDNA encoding residues 448–572 and 613–752 of mouse MAGI-1 (UniProt acc.: Q6RHR9-1) encoding for MAGI1-2/6 (100% identical to human MAGI1-2/6) and MAGI1-3/6 (99% identical to human MAGI1-3/6) PDZ domains, respectively, were inserted into the NcoI/KpnI sites of the pETM-41 expression vector (EMBL) containing a 6×His-MBP tag followed by a TEV protease cleavage site. A similar cloning strategy was adopted for cDNA bearing residues 997–1093, 1097–1193 and 997–1193 of human SCRIB (Uniprot acc.: Q14160-1) encoding for SCRIB-3/4, SCRIB-4/4 PDZ domains and SCRIB-34/4 tandem PDZ construct, respectively.
(§3) Data were collected on a Biacore 2000 instrument (Biacore AB/GE Healthcare Bio-Sciences Corp., Piscataway, NJ, USA) at 25 [drawing 74] C. SPR experiments (ligand immobilisation and binding measurements) have been performed as described in Fournane et al.. Briefly, biotinylated peptides (instead of GST-fused recombinant peptides) were immobilised on CM5 sensorchips on which Neutravidin was previously attached. The MBP-PDZ domain analyte was injected at 8 to 10 different concentrations ranging from 0 up to 30 [drawing 75] M. Data were processed using the BiaEvaluation 3.2 software (Biacore AB/GE Healthcare Bio-Sciences Corp.) using “double referencing” [78] in which sensorgrams were corrected for buffer effects and bulk refractive index changes.
(§4) The steady-state binding signal ( [drawing 76] ) was derived by averaging the signals in a five second window at equilibrium. Steady-state analysis was performed by fitting the average signal [drawing 77] as a function of total MBP-PDZ concentrations, assuming a simple 1∶1 interaction binding isotherm model. […] Reasons for this inaccuracy are likely to be the following: 1. As previously described, several repetitions of all the measurements are required to determine accurate K [drawing 81] . In our case, such repetitions were not achievable in reasonable time due to the large amount of interactions measured in this study. 2. The highest injected analyte concentration restricts the maximal K [drawing 82] (weakest interaction) that can be accurately obtained. 3. A K [drawing 83] is estimated based on a mathematical extrapolation of observed [drawing 84] signals leading to additional uncertainty. Based on these reasons, we considered the calculated K [drawing 85] not as accurate enough to be used for absolute binding strength comparison in this study. We rather performed a relative analysis of binding strengths using directly [drawing 86] signals which are not biased by any mathematical assumption. We focussed on [drawing 87] signals obtained at 10 [drawing 88] M MBP-PDZ concentration, which have been systematically measured in duplicate. The [drawing 89] signal is directly proportional to the molecular weight of the analyte and the amount of immobilised ligand. Therefore, the [drawing 90] signals were normalised taking those into account before being used for binding strength comparison. […]

For experiment [1], the target named is T2, SCRIB-34/4 tandem PDZ construct (Homo sapiens, UniProt Q14160).
T2 construct: residues 997–1093, 1097–1193 and 997–1193 of human SCRIB (Uniprot acc.: Q14160-1); made in house; host or cells: E. coli BL21 DE3
T2 sequence (Q14160 997-1193 isoform Q14160-1): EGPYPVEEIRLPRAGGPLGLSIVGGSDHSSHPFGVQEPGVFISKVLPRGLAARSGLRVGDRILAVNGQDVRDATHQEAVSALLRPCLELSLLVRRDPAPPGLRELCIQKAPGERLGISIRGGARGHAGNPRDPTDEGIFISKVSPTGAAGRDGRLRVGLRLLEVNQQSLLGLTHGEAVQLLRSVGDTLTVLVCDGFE
The note with it: SPR Biacore 2000, 25 C, steady state, 1:1 binding isotherm, MBP-PDZ 0-30 µM, to be considered with caution. On the procedure: as §1, §2, §3, §4

The next experiment has as its target T3, SCRIB-4/4 PDZ domain (Homo sapiens, UniProt Q14160).
T3 construct: residues 997–1093, 1097–1193 and 997–1193 of human SCRIB (Uniprot acc.: Q14160-1); made in house; host or cells: E. coli BL21 DE3
T3 sequence (Q14160 1097-1193 isoform Q14160-1): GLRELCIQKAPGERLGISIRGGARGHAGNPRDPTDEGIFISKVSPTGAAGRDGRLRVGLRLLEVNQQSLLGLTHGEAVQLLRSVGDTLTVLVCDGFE
The following applies: SPR Biacore 2000, 25 C, steady state, 1:1 binding isotherm, MBP-PDZ 0-30 µM; to be considered with caution; read-out: tentative KD. As to the method: as §1, §2, §3, §4

In another experiment the target is T4, MAGI1-2/6 PDZ domain (Mus musculus, UniProt Q6RHR9).
T4 construct: The cDNA encoding residues 448–572 and 613–752 of mouse MAGI-1 (UniProt acc.: Q6RHR9-1) encoding for MAGI1-2/6; made in house; host or cells: E. coli BL21 DE3
T4 sequence (Q6RHR9 448-572): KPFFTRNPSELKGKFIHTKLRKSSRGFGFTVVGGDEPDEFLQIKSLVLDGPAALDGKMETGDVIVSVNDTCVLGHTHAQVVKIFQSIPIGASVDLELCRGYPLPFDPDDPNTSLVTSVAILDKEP
The note with it: SPR Biacore 2000, 25 C, steady state, 1:1 binding isotherm, MBP-PDZ 0-30 µM, to be considered with caution. On the procedure: as §1, §2, §3, §4

The target of the next experiment is T5, SCRIB-3/4 PDZ domain (Homo sapiens, UniProt Q14160).
T5 construct: cDNA bearing residues 997–1093, 1097–1193 and 997–1193 of human SCRIB (Uniprot acc.: Q14160-1); made in house; host or cells: E. coli BL21 DE3
T5 sequence (Q14160 997-1093 isoform Q14160-1): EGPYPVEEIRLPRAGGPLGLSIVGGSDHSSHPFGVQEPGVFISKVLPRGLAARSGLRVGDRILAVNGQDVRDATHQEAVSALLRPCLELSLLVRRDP
The note with it: tentative KD, SPR Biacore 2000, 25 C, steady state, 1:1 binding isotherm, MBP-PDZ 0-30 µM; to be considered with caution. As to the method:
as §1, §2, §3, §4

As to `CC(C)C[C@H](NC(=O)[C@@H](NC(=O)[C@H](CCC(=O)O)NC(=O)[C@H](CCCCN)NC(=O)CNC(=O)[C@H](C)NC(=O)CNC(=O)[C@H](CO)NC(=O)CNC(=O)CCCC[C@@H]1SC[C@@H]2NC(=O)N[C@@H]21)[C@@H](C)O)C(=O)N[C@H](C(=O)O)C(C)C` [NET1_05] (Biotin-GSGAGKETLV-OH), the results for the equilibrium dissociation constant (Kd) (on MAGI1-3/6 PDZ domain; in experiment [1] (read-out: tentative KD)) were 23 µM and 15 µM, respectively. Regarding CNTVTVETVV [MAS_10], in experiment [1] (read-out: tentative KD), the dissociation constant Kd was 3 µM. The same measure, in the same setting: then GSGAGSETSV [VANG2_05], with 4 µM. Consider `CC(C)[C@H](NC(=O)[C@@H](NC(=O)[C@@H](NC(=O)[C@H](CCC(=O)O)NC(=O)[C@@H](NC(=O)CNC(=O)[C@H](C)NC(=O)CNC(=O)[C@H](CO)NC(=O)CNC(=O)CCCC[C@@H]1SC[C@@H]2NC(=O)N[C@@H]21)C(C)C)[C@@H](C)O)C(C)C)C(=O)O` [MAS_05] (Biotin-GSGAGVETVV-OH), for which the results for the dissociation constant (Kd) (on SCRIB-4/4 PDZ domain; in experiment [1] (read-out: tentative KD)) were 433 µM and 16 µM, respectively. On the same counts, the results for `CC(C)[C@H](NC(=O)[C@H](CCCNC(=N)N)NC(=O)[C@@H](NC(=O)[C@H](CCC(=O)O)NC(=O)[C@H](CCCCN)NC(=O)CNC(=O)[C@H](C)NC(=O)CNC(=O)[C@H](CO)NC(=O)CNC(=O)CCCC[C@@H]1SC[C@@H]2NC(=O)N[C@@H]21)[C@@H](C)O)C(=O)O` [CYSLTR2_05] (Biotin-GSGAGKETRV-OH) are 123 µM and 10 µM. Turning to KPGKGSETVV [FZD4_10], at MAGI1-2/6 PDZ domain (read-out: tentative KD), the Kd is 23 µM. As to QDEKVKESYV [ABC1_10], the Kd in experiment [1] (read-out: tentative KD) worked out at 8 µM. As for `CC(C)C[C@H](NC(=O)[C@H](CCC(N)=O)NC(=O)[C@@H](NC(=O)[C@H](CCC(=O)O)NC(=O)[C@H](CCCNC(=N)N)NC(=O)CNC(=O)[C@H](C)NC(=O)CNC(=O)[C@H](CO)NC(=O)CNC(=O)CCCC[C@@H]1SC[C@@H]2NC(=O)N[C@@H]21)[C@@H](C)O)C(=O)O` [16E6_05] (Biotin-GSGAGRETQL-OH), the dissociation constant (Kd) on MAGI1-2/6 PDZ domain (tentative KD) worked out at 7 µM; at SCRIB-3/4 PDZ domain it was 12 µM; in experiment [1] (tentative KD), 1 µM.

Regarding PMESGICTIV [TTC24_10], on MAGI1-3/6 PDZ domain, the Kd was determined as 37 µM. For the compound KDECVIATEV [DLL1_10], at SCRIB-4/4 PDZ domain, the Kd was 88 µM. Consider `CC(C)[C@H](NC(=O)[C@@H](NC(=O)[C@@H](NC(=O)[C@H](CCC(=O)O)NC(=O)[C@H](CCCCN)NC(=O)CNC(=O)[C@H](C)NC(=O)CNC(=O)[C@H](CO)NC(=O)CNC(=O)CCCC[C@@H]1SC[C@@H]2NC(=O)N[C@@H]21)[C@@H](C)O)C(C)C)C(=O)O` [MARCH3_05] (Biotin-GSGAGKETVV-OH), for which the dissociation constant Kd in experiment [1] (read-out: tentative KD) stood at 7 µM.

Regarding QGRWDHETIV [TMEM215_10], the Kd in experiment [1] (read-out: tentative KD) amounted to 9 µM.

As to `C[C@H](NC(=O)CNC(=O)[C@H](CO)NC(=O)CNC(=O)CCCC[C@@H]1SC[C@@H]2NC(=O)N[C@@H]21)C(=O)NCC(=O)N[C@@H](CCCCN)C(=O)N[C@@H](CCC(=O)O)C(=O)N[C@H](C(=O)N[C@@H](CO)C(=O)N[C@@H](Cc1ccccc1)C(=O)O)[C@@H](C)O` [GLUT7_05] (Biotin-GSGAGKETSF-OH), the Kd in experiment [1] (read-out: tentative KD) was found to be 5 µM.

The Kd is the equilibrium constant for the complex coming apart.
